Laboratory results from the NIST ThermoML archive (doi:10.1016/j.jct.2006.01.015).

Assay: xn = mol fraction of the nth substance listed
Details: 101 kPa, Liquid

CC#N [acetonitrile] + CN(C)C=O
mass density [kg/m3]
Details | 293.15 K | 298.15 K | 303.15 K | 308.15 K | 313.15 K | 318.15 K
x1 = 0.0654 | 942 | 937.5 | 933 | 928.6 | 924.1 | 919.6
x1 = 0.1303 | 934.6 | 930.1 | 925.6 | 921.2 | 916.7 | 912.2
x1 = 0.1912 | 927.4 | 922.9 | 918.4 | 914 | 909.4 | 904.9
x1 = 0.2586 | 919 | 914.5 | 909.9 | 905.5 | 900.9 | 896.4
x1 = 0.3204 | 910.9 | 906.3 | 901.7 | 897.2 | 892.6 | 888.1
x1 = 0.3851 | 902 | 897.4 | 892.7 | 888.2 | 883.6 | 879
x1 = 0.4596 | 891.2 | 886.5 | 881.8 | 877.2 | 872.5 | 867.9
x1 = 0.5125 | 883.1 | 878.4 | 873.6 | 869 | 864.2 | 859.5
x1 = 0.5925 | 870 | 865.2 | 860.4 | 855.7 | 850.9 | 846.1
x1 = 0.6402 | 861.7 | 856.9 | 852 | 847.3 | 842.5 | 837.6
x1 = 0.6899 | 852.6 | 847.8 | 842.9 | 838.1 | 833.2 | 828.3
x1 = 0.731 | 844.7 | 839.8 | 834.9 | 830 | 825.1 | 820.2
x1 = 0.7736 | 836.1 | 831.1 | 826.1 | 821.2 | 816.3 | 811.4
x1 = 0.8522 | 818.9 | 813.9 | 808.9 | 803.9 | 798.9 | 793.9
x1 = 0.9359 | 798.9 | 793.8 | 788.7 | 783.6 | 778.5 | 773.4
x1 = 1 | 782.1 | 776.8 | 771.5 | 766.3 | 761 | 755.7
